Columns and labels:
mitochondrial complex II = target: T1, mitochondrial complex II (Homo sapiens, UniProt O14521+P21912+Q99643); assay: oxygen consumption rate, Seahorse XF96, permeabilized cells; format: cell-based
T1 construct: gene SDHB; native complex in permeabilized H2030BrM3 cells

mitochondrial complex I = target: T2, mitochondrial complex I (Homo sapiens, UniProt O75251+O75306+P03886); assay: as above; format: cell-based
T2 construct: gene MT-ND1; native complex in permeabilized H2030BrM3 cells

T1 sequence (P21912 29-280): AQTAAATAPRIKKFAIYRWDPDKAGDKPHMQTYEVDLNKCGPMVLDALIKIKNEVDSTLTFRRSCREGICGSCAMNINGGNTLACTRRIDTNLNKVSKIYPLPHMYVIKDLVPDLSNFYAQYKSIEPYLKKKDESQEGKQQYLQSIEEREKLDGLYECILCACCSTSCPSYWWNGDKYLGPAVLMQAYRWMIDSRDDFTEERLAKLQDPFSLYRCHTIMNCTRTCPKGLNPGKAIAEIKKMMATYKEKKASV
T1 sequence (Q99643 30-169): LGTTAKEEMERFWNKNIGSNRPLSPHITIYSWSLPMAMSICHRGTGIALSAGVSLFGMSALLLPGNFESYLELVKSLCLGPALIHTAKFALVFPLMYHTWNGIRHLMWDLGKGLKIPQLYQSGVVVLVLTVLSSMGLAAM
T1 sequence (O14521 57-159): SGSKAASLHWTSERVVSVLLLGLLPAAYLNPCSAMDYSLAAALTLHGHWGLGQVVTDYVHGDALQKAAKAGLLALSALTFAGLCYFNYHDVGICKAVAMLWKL
T1 sequence (P31040 43-664 partner): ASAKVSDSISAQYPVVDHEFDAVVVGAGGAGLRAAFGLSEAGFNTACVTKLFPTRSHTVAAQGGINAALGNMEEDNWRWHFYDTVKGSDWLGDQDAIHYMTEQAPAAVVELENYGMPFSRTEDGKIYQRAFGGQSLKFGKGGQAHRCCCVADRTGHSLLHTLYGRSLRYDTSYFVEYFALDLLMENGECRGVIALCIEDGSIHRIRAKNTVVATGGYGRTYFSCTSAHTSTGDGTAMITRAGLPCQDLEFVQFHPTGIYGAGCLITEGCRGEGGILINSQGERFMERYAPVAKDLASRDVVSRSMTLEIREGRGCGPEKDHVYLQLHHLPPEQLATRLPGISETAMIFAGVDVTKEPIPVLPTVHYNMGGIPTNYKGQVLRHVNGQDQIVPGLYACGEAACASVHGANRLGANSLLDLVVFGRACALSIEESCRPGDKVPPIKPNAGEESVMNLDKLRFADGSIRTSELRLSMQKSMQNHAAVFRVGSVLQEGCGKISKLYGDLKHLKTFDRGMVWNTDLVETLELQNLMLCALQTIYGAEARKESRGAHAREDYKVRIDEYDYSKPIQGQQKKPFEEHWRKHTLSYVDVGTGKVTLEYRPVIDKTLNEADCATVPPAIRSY

SMILES | IC50 (mitochondrial complex II) [µM] | IC50 (mitochondrial complex I) [µM]
O=C(O)c1nn(Cc2ccc(Cl)cc2Cl)c2ccccc12 [LND] | 390 | 444
O=C(NCCCCCCCCCC[P+](c1ccccc1)(c1ccccc1)c1ccccc1)c1nn(Cc2ccc(Cl)cc2Cl)c2ccccc12 [Mito-LND] | 2.4 | 1.2

Source: article PMC6525201, “Targeting lonidamine to mitochondria mitigates lung tumorigenesis and brain metastasis” (Nature Communications, 2019)
